Molecules are shown by their SMILES. pEC50: −log10 of the molar value.

The record followed here is ChEMBL document CHEMBL4725400, “Natural product-inspired aryl isonitriles as a new class of antimalarial compounds against drug-resistant parasites” (Bioorg Med Chem, 2020).

Tested on in one series: not listed separately
Briefly: Selectivity index, ratio of MTD for cytotoxicity against human HaCaT cells to EC50 for antimalarial activity against blood stage chloroquine-resistant Plasmodium falciparum Dd2 infected in human erythrocytes. Type of series: toxicity, cell-based. The note with it: read-out: Selectivity Index.
In the case of `[C-]#[N+]c1ccc(/C=C/c2ccncc2)cc1`, the selectivity ratio is 1450.

`[C-]#[N+]c1ccc(/C=C/c2ccc([N+]#[C-])cc2)cc1`: the selectivity ratio amounted to 4740.

Another series concerns Plasmodium falciparum. Kind of series: Antimalarial activity against Plasmodium falciparum W2 assessed as inhibition of parasite growth. It counts as functional, organism-based.
Settings: not given
What is called pEC50 is the negative decadic logarithm of the EC50, by convention in mol/L. For the compound `CC1=C[C@]2(CC1)[C@H](C)CC[C@@H](C(C)C)[C@H]2N=C=S`, the pEC50 is 4.93.

For the compound `[C-]#[N+][C@@H]1[C@H](C(C)C)CC[C@@H](C)[C@@]12C=C(C)CC2` [AXISONITRILE 3], the pEC50 is 7.15.

`[C-]#[N+][C@]1(C)[C@H](C)C[C@@H]2C[C@H](C)[C@H]3CC[C@](C)([N+]#[C-])[C@H]4CC[C@H]1[C@@H]2[C@H]34` [DIISOCYANOADOCIANE]: the pEC50 was 7.89.

Tested on in another series: not listed separately
Kind of series: Selectivity index, ratio of IC50 for cytotoxicity against human KB cells to EC50 for antiplasmodial activity against Plasmodium falciparum W2. The note with it: read-out: Selectivity Index. It counts as toxicity, cell-based.
Take `[C-]#[N+][C@]1(C)[C@H](C)C[C@@H]2C[C@H](C)[C@H]3CC[C@](C)([N+]#[C-])[C@H]4CC[C@H]1[C@@H]2[C@H]34` [DIISOCYANOADOCIANE]: the selectivity ratio is 1000.

In another series the test system is Plasmodium falciparum. Briefly: Antimalarial activity against blood stage chloroquine-resistant Plasmodium falciparum Dd2 infected in human erythrocytes assessed as inhibition of parasite growth incubated for 72 hrs by SYBR Green I dye based staining analysis. The note with it: Dd2, Erythrocyte. It counts as functional, organism-based.
As for `[C-]#[N+]c1ccccc1-c1ccccc1`, the pEC50 was 4.97.

Regarding `[C-]#[N+]c1ccccc1/C=C(\CC)c1ccccc1`, the pEC50 is 4.98.

Regarding `[C-]#[N+]c1ccccc1/C=C(\CCC)c1ccccc1`, the pEC50 was 5.51.

Turning to `[C-]#[N+]c1ccccc1/C=C(\CCCC)c1ccccc1`, the pEC50 was 5.28.

Regarding `[C-]#[N+]c1ccccc1C=C(c1ccccc1)c1ccccc1`, the pEC50 is 5.44.

With `[C-]#[N+]c1ccccc1/C=C(\CC)c1ccc(F)cc1`, the negative-log EC50 (pEC50) was 5.01.

On to `[C-]#[N+]c1ccccc1/C=C(\CC)c1ccc(C(F)(F)F)cc1`, for which the pEC50 is 5.11.

For `[C-]#[N+]c1ccccc1/C=C(\CC)c1cccc(C(F)(F)F)c1`, the pEC50 is 5.27.

Consider `[C-]#[N+]c1ccccc1/C=C/c1ccccc1`, for which the pEC50 is 4.94.

For the compound `[C-]#[N+]c1ccccc1/C=C/c1ccc(OC)cc1`, the pEC50 is 5.51.

Take `[C-]#[N+]c1ccccc1/C=C/c1cccc(OC)c1`: the negative logarithm of the EC50 (pEC50) is 5.19.

On to `[C-]#[N+]c1ccccc1/C=C/c1ccccc1OC`, for which the pEC50 was 4.66.

In the case of `[C-]#[N+]c1ccccc1/C=C/c1ccc(F)cc1`, the pEC50 was 6.25.

On to `[C-]#[N+]c1ccccc1/C=C/c1ccccc1F`, for which the pEC50 was 5.43.

For the compound `[C-]#[N+]c1ccccc1/C=C/c1cccc(F)c1`, the pEC50 was 4.91.

Regarding `[C-]#[N+]c1ccccc1/C=C/c1ccc(C(F)(F)F)cc1`, the pEC50 is 5.24.

With `[C-]#[N+]c1ccccc1/C=C/c1cccc(C(F)(F)F)c1`, the pEC50 was 6.57.

As to `[C-]#[N+]c1ccccc1/C=C/c1ccccc1C(F)(F)F`, the negative-log EC50 (pEC50) was 5.37.

Regarding `[C-]#[N+]c1ccccc1/C=C/c1ccccn1`, the pEC50 is 5.12.

In the case of `[C-]#[N+]c1cccc(/C=C/c2ccccn2)c1`, the pEC50 was 5.01.

Take `[C-]#[N+]c1ccc(/C=C/c2ccccn2)cc1`: the pEC50 is 4.99.

For `[C-]#[N+]c1ccccc1/C=C/c1cccnc1`, the pEC50 was 4.89.

In the case of `[C-]#[N+]c1cccc(/C=C/c2cccnc2)c1`, the pEC50 is 6.16.

Consider `[C-]#[N+]c1ccc(/C=C/c2cccnc2)cc1`, for which the pEC50 was 5.29.

For `[C-]#[N+]c1ccccc1/C=C/c1ccncc1`, the pEC50 is 5.43.

In the case of `[C-]#[N+]c1ccc(/C=C/c2ccncc2)cc1`, the negative logarithm of the EC50 (pEC50) is 7.06.

On to `[C-]#[N+]c1cccc(/C=C/c2ccccc2)c1`, for which the pEC50 was 5.27.

For the compound `[C-]#[N+]c1ccc(/C=C/c2ccccc2)cc1`, the pEC50 was 5.56.

As for `CC/C(=C\c1ccccc1)c1ccccc1`, the negative-log EC50 (pEC50) is less than 4.00.

For `[C-]#[N+]c1ccccc1-c1ccc2ccccc2c1`, the pEC50 was 5.21.

`[C-]#[N+]c1ccc(/C=C/c2cc(OC)cc(OC)c2)cc1`: the pEC50 was 5.79.

As for `[C-]#[N+]c1ccc(/C=C/c2ccc([N+]#[C-])cc2)cc1`, the pEC50 is 7.57.

Regarding `[C-]#[N+]c1ccc(CCc2ccc([N+]#[C-])cc2)cc1`, the pEC50 was 6.66.

`[C-]#[N+]c1ccc(/C=C/c2ccco2)cc1`: the pEC50 is 5.58.

For the compound `[C-]#[N+]c1ccc(/C=C/c2ccc(Cl)c(Cl)c2)cc1`, the pEC50 was 5.49.

With `[C-]#[N+]c1ccc(/C=C/c2ccc(OC)cc2)cc1`, the pEC50 was 5.64.

With `[C-]#[N+]c1ccc(/C=C/c2ccccc2[N+]#[C-])cc1`, the pEC50 was 7.17.

As to `[C-]#[N+]c1ccc(/C=C/c2ccc3ccccc3n2)cc1`, the pEC50 is 5.28.

On to `[C-]#[N+]c1ccc(/C=C/c2ccnc3ccccc23)cc1`, for which the pEC50 is 5.16.

`[C-]#[N+]c1ccc(/C=C/c2cccc([N+]#[C-])c2)cc1`: the pEC50 was 6.58.

Take `[C-]#[N+]c1ccc(CCc2ccncc2)cc1`: the pEC50 is 6.25.

Regarding `[C-]#[N+]c1ccc(/C=C/c2ccc(C(F)(F)F)cc2)cc1`, the pEC50 was 5.66.

As to `[C-]#[N+]c1ccc(/C=C/c2ccc(F)cc2)cc1`, the pEC50 is 5.33.

For `[C-]#[N+]c1ccc(CCc2ccccc2[N+]#[C-])cc1`, the pEC50 was 6.36.

For the compound `[C-]#[N+]c1ccc(/C=C/c2cccc(OC)c2)cc1`, the pEC50 was 6.00.

As for `[C-]#[N+]c1ccc(CCc2cccc([N+]#[C-])c2)cc1`, the pEC50 is 5.56.
